Results as given in patent publication US9512139B2, “Conformationally constrained, fully synthetic macrocyclic compounds” (POLYPHOR AG, priority 2009, dated 2016).
Where two headings read alike, the source gives them in different places.

Key:
[1] = molecular target: T1, Motilin Receptor (Homo sapiens, UniProt O43193); test: Ca2+ assay (FLIPR) for the GPCR motilin receptor, agonist and antagonist mode; format: cell-based; conditions: antagonist mode, at 10 μM
T1 construct: host or cells: Ca2+ optimized hematopoietic cell lines (rat)
T1 sequence (O43193 whole entry, species assumed): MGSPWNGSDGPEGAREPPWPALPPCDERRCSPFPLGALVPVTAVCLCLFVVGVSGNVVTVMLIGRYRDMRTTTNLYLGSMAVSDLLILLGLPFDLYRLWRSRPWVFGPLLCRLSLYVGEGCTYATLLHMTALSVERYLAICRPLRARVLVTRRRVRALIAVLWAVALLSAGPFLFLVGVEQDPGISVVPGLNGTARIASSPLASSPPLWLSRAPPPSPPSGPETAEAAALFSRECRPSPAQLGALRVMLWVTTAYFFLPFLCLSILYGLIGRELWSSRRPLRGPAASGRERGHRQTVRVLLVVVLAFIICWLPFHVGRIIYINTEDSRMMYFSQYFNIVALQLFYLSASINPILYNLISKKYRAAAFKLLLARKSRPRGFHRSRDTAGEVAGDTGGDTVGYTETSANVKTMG
Procedure: Ca^2+ Assays for the GPCRs Motilin Receptor, Prostaglandin F (FP) Receptor, 5-hydroxytryptamine 2B (5-HT2B) Receptor, and Purinoreceptor P2Y1
Assays were performed using on a FLIPR^TETRA fluorometric imaging plate reader (Molecular Devices) with ScreenWorks Version 2 (Molecular Devices) as device operating and data analysis software.
Dose dependent agonist and antagonist activities were determined. Percentage activation and percentage inhibition values were determined.
Percentage activation was determined upon initial addition of the sample compounds followed by 10 minutes incubation at 25° C. Following compound incubation, reference agonists were added at EC80 to determine percentage inhibition.
Reference agonists were purchased from reputable commercial vendors and prepared according to each ligand's specifications. All handling of ligands were done to ensure proper control throughout the experiments.
Example compounds were weighed on a Microbalance (Mettler MX5) and dissolved in 100% DMSO to a final concentration of 2.5 mM and subsequently diluted into the assay buffer.
The Assay buffer was a supplemented HBSS (Hank's Balanced Salt Solution). HBSS was supplemented with 20 mM HEPES (4-(2-hydroxyethyl)-piperazin-1-ethansulfonic acid) and 2.5 mM Probenecid (Sigma P8761).
GPCR assays were performed using Ca^2+ optimized hematopoietic cell lines (rat) with cultures never exceeding 90% confluency. […] After seeding, the assay plates were incubated for forty-five (45) minutes at room temperature. After room temperature incubation, the assay plates were incubated at 37° C. 5% CO2 for 24 hours prior to assaying.
All GPCR assays were performed using Fluo-8 Ca^2+ dye. Ca^2+ dye was prepared at 1× dye concentration in GPCR assay buffer. After 24 hours of incubation, cells were washed with GPCR assay buffer, and then Ca^2+-dye (100 μL/well) was added.
The plates were incubated for 90 minutes at 30° C. 5% CO2 prior to FLIPR assay.
Compound plates were prepared to add 50 μL/well during the agonist assay mode. During the FLIPR assay, 50 μL/well from the compound plate was diluted 3-fold into the existing 100 μL/well from the dye loading step. Therefore all compounds were prepared as 3× the final concentration desired in the assay.
After completion of the first single addition assay run, assay plate was removed from the FLIPR Tetra and placed at 25° C. for seven (7) minutes before antagonist assay.
Using the EC80 values determined during the agonist assay, all pre-incubated sample compound and reference antagonist (if applicable) wells were stimulated at the EC80 of the reference agonist. As reference ligands for the first three assays their obvious natural ligands motilin, prostaglandin F2α, and serotonin (5-HT, 5-Hydroxytryptamine) were used; and for the P2Y1 assay 2MeSATP (2-methyl-thio-adeno-sine 5′-triphosphate, i.e. (2R,3S,4R)-5-(6-amino-2-methylsulfanyl-purin-9-yl)-3,4-dihydroxy-tetrahydrofuran-2-yl]methyl (hydroxy-phosphonooxy-phosphoryl)hydrogen phosphate) was applied.
After the addition of the reference agonist fluorescence was monitored for 180 sec using FLIPR Tetra.
Data Analysis and Results:
From the FLIPR data, with negative control correction enabled, the maximum statistic for each well was exported and percentage activation relative to Emax control was calculated.

[2] = in vitro; format: in vitro ADME, human; conditions: human, plasma, 10 µM; for Plasma Stability 240 min hum [% remain.]: 4 h
Procedure: (§1) Example compounds were dissolved in DMSO/H2O 90:10 to a final concentration of 10 mM for plasma stability determination and metabolic stability determination.
(§2) Human plasma (3-5 donors, Blutspendedienst SRK, Basel) and CD-1 mouse plasma (mixed gender pool >50 animals, Innovative Research, CA, USA) are both sodium citrate stabilized. The assay is performed in triplicates at 10 μM compound concentration and 37° C. Samples are taken at 0, 15, 60, and 240 minutes and stopped by precipitation with 2 volumes of acetonitrile. The supernatant is collected, evaporated and reconstituted in a 5% acetonitrile solution to be analyzed by HPLC/MS/MS. The resulting peak area counts are expressed in percent of the 0 value and used to determine the endpoint stability in % and the half life in minutes. In order to monitor assay integrity the degradation of propantheline is assayed with every experimental set.

[3] = in vitro; format: in vitro ADME, mouse; conditions: both, CD-1, mouse, plasma, 10 µM; for Plasma Stability 240 min mouse [% remain.]: 4 h
Procedure: as §1, §2

[4] = Metabolic stability assay, human microsomes; format: in vitro ADME; conditions: human, microsomes; for Metabolic Stability T½ [min] hum / Metabolic Stability 60 min hum [% remain.]: both, 10 µM; for Metabolic Stability 60 min hum [% remain.]: 1 h
[5] = Metabolic stability assay, CD-1 mouse microsomes; format: in vitro ADME; conditions: both, CD-1, mouse, microsomes, 10 µM; for Metabolic Stability 60 min mouse [% remain.]: 1 h
[6] = Pharmacokinetic study after single i.v. and p.o. administration in male SD rats; format: in vivo; conditions: rat; for Cmax / Tmax / C0 / half-life / bioavailability: male, SD, plasma; for C0: extrapolated to tzero; for half-life: read-out: T1/2 (terminal) (converted)
Procedure: 5. Pharmacokinetic Study (PK) Analysis
Pharmacokinetic analyses after single intravenous (i.v.) and two different peroral (p.o.) administrations were performed for the test compounds. 240 grams (±10 gram) male SD rats were catheterized and used in the study. The vehicle, Solutol HS-15/0.9% saline (5:95), was added to give a final concentration of 0.33 mg/ml of the compounds for i.v. application, and 0.5 or 2.0 mg/ml for p.o. applications. The volumes used for applications were 3 ml/kg i.v. and 10 ml/kg p.o. resulting in a final dose of 1 mg/kg for the intravenous dose and 5 or 20 mg/kg for the peroral doses.
Blood samples were withdrawn via the catheter at 1) predose, 5, 15, 30, 60, 120, 240, and 480 minutes for the i.v. application and 2) predose, 15, 30, 60, 120, 240, 480 and 720 minutes for the p.o. applications. Plasma was prepared by centrifugation of heparinized whole blood. Plasma samples (˜120 μl each time point, Li-Heparin, 20 IE/ml) were stored at −80° C. until HPLC-MSMS analysis.
Preparation of the Plasma Calibration Samples:
“Blank” rat plasma from untreated animals was used. Aliquots of plasma of 50 μL each were spiked with Internal Standard (ISTD) and with known amounts test compounds in order to obtain 11 plasma calibration samples in the range 0.25-4000 ng/mL.
Preparation of Plasma Samples:
To 50 μL of sample from treated animals 20 μL of internal standard were added. After mixing with 200 μL of acetonitrile, 2% HCOOH were added and each sample was vortexed for several seconds. Precipitated material was removed by centrifugation for 10 min (13200 rpm), the supernatant removed and dried under a constant flow of N2 (Porvair, MiniVap). To reconstitute the dried samples, 200 μL of [DMSO/acetonitrile/H2O, 4/4/2 (v/v/v)+2% HCOOH] were added and the sample was shaken for at least 5 minutes.
LC-MSMS Analysis of Samples:
Reconstituted samples were analysed by HPLC/MSMS on a reverse phase analytical column (BEH C18, 100×2.1 mm, 1.7 μm, Waters). Mobile phase A: H2O/acetonitrile (95:5, v:v) 0.1% formic acid, mobile phase B: Acetonitrile/H2O (95:5, v:v) 0.1% formic acid. Compounds were eluted from the column by using a gradient from 1% B to 60% B in 2.5 min.).
Pharmacokinetic Evaluation:
PK analysis was performed on mean values (generally n=3) using WinNonLin software (Version 5.3, Pharsight Corporation). The area under the curve AUC was calculated by the linear trapezoidal rule (linear interpolation, uniform weighting). AUC(t-∞) was estimated as Ct/b (b: elimination rate constant). […] the sum of AUC(0-t) and AUC(t-∞). Elimination half-life was calculated by the linear regression on at least three data points during the elimination phase. The time intervals selected for the half-life determinations were evaluated by the correlation coefficient (r^2), which should be at least above 0.85 and ideally above 0.96.
In case of i.v. administration the initial concentration at tzero was determined by extrapolation of the curve through the first two time points. Finally bioavailability after p.o. administration was calculated from the dose normalized AUC(0-∞) ration after p.o. versus i.v. administration.

[7] = Metabolic stability assay, rat microsomes (values in parentheses); format: in vitro ADME; conditions: value in parentheses
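Wherever Plasma Stability 240 min mouse [% remain.] is given: sodium citrate stabilized mouse plasma, parent compound quantified by HPLC/MS/MS relative to its peak area at time zero, run in triplicate.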
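Wherever Plasma Stability T½ [min] mouse is given: sodium citrate stabilized mouse plasma, parent compound quantified by HPLC/MS/MS relative to its peak area at time zero, run in triplicate.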

Row | Structure (SMILES) | Plasma Stability T½ [min] hum [2] | Plasma Stability 240 min hum [% remain.] [2] | Plasma Stability T½ [min] mouse [3] | Plasma Stability 240 min mouse [% remain.] [3] | Metabolic Stability 60 min hum [% remain.] [4] | Metabolic Stability T½ [min] mouse [5] | Metabolic Stability 60 min mouse [% remain.] [5] | Cmax ([6]; iv, 1 mg/kg) | Tmax ([6]; iv, 1 mg/kg) | C0 ([6]; iv, 1 mg/kg) | half-life ([6]; iv, 1 mg/kg) | Cmax ([6]; po, 5 mg/kg) | Tmax ([6]; po, 5 mg/kg) | bioavailability ([6]; po, 5 mg/kg) | half-life ([6]; po, 5 mg/kg) | Cmax ([6]; po, 20 mg/kg) | Tmax ([6]; po, 20 mg/kg) | bioavailability ([6]; po, 20 mg/kg) | half-life ([6]; po, 20 mg/kg) | AUC(t-∞) dose normalized ([6]; iv, 1 mg/kg) | other results
1 | CN(C)CCNC(=O)[C@@H]1CCC(=O)N(C)CC(=O)N2C[C@@H](NC(=O)Cc3ccc4ccccc4c3)C[C@H]2COc2ccc(F)cc2C(=O)N1C [Ex. 48, (2S,11S,19aS)-N-[2-(dimethylamino)ethyl]-15-fluoro-7,12-dimethyl-2-{[2-(2-naphthyl)acetyl]amino}-5,8,13-trioxo-2,3,6,7,8,9,10,11,12,13,19,19a-dodecahydro-1H,5H-pyrrolo[2,1-c] [1,4,7,12] benzoxatriazacyclopentadecine-11-carboxamide] |  |  |  |  |  |  |  |  |  |  |  |  |  |  |  |  |  |  |  |  | inhibition at 10 µM [1]: 29%
2 | CN1CCC[C@H](NC(=O)CC(C)(C)C)C(=O)N2C[C@@H](O)C[C@H]2COc2cccc(c2)C1=O [Ex. 571, N-[(4S,6S,10S)-6-hydroxy-14-methyl-9,15-dioxo-2-oxa-8,14-diazatricyclo[14.3.1.0^4,8]icosa-1(20),16,18-trien-10-yl]-3,3-dimethylbutanamide] | > 240 min | 86 % remain. | > 240 min | 89 % remain. | 90 % remain. | > 60 min | 74 % remain. | 644 ng/mL | 0.08 h | 932 ng/mL | 1.7 h | 340 ng/mL | 0.25 h | 29% | 2.18 h | 1520 ng/mL | 0.25 h | 27.2% | 2.3 h | 321.32 kg·ng·h/mL/mg | Metabolic Stability T½ [min] hum [4]: > 60 min; Cmax dose normalized ([6]; iv, 1 mg/kg): 643.67 kg·ng/mL/mg; V (terminal) ([6]; iv, 1 mg/kg): 7.61859 L/kg; AUC(t-∞) dose normalized ([6]; po, 5 mg/kg): 93.34 kg·ng·h/mL/mg; Cmax dose normalized ([6]; po, 5 mg/kg): 68.07 kg·ng/mL/mg; AUC(t-∞) dose normalized ([6]; po, 20 mg/kg): 87.49 kg·ng·h/mL/mg; Cmax dose normalized ([6]; po, 20 mg/kg): 75.83 kg·ng/mL/mg; Metabolic Stability 60 min (rat) [% remain.] [7]: 88 % remain.; Metabolic Stability T½ [min] (rat) [7]: 60 (60) min
3 | CN1CCC[C@H](N)C(=O)N2C[C@@H](Oc3ccccc3)C[C@H]2COc2cccc(c2)C1=O [Ex. 561, (4S,6S,10S)-10-amino-14-methyl-6-phenoxy-2-oxa-8,14-diazatricyclo[14.3.1.0^4,8]icosa-1(20),16,18-triene-9,15-dione] | > 240 min | 99 % remain. | > 240 min | 100 % remain. | 42 % remain. | > 60 min | 79 % remain. | 184 ng/mL | 0.08 h | 240 ng/mL | 2.11 h | 67 ng/mL | 0.5 h | 10.9% | 3 h | 248 ng/mL | 0.25 h | 16.8% | 2.71 h | 219.89 kg·ng·h/mL/mg | half-life at 10 µM ([4]; both sexes): 0.65 h; Cmax dose normalized ([6]; iv, 1 mg/kg): 183.67 kg·ng/mL/mg; V (terminal) ([6]; iv, 1 mg/kg): 13.8314 L/kg; AUC(t-∞) dose normalized ([6]; po, 5 mg/kg): 24.00 kg·ng·h/mL/mg; Cmax dose normalized ([6]; po, 5 mg/kg): 13.40 kg·ng/mL/mg; AUC(t-∞) dose normalized ([6]; po, 20 mg/kg): 36.88 kg·ng·h/mL/mg; Cmax dose normalized ([6]; po, 20 mg/kg): 12.40 kg·ng/mL/mg; Metabolic Stability 60 min (rat) [% remain.] [7]: 53 % remain.; half-life at 10 µM ([7]; read-out: Metabolic Stability T½ [min] (rat)): 56 min
4 | CN1CCC[C@H](N)C(=O)N2C[C@@H](OCc3ccccc3)C[C@H]2COc2cccc(c2)C1=O [Ex. 568, (4S,6S,10S)-10-amino-6-(benzyloxy)-14-methyl-2-oxa-8,14-diazatricyclo[14.3.1.0^4,8]icosa-1(20),16,18-triene-9,15-dione] | > 240 min | 97 % remain. | > 240 min | 89 % remain. | 53 % remain. | > 60 min | 60 % remain. | 195 ng/mL | 0.08 h | 285 ng/mL | 1.67 h | 64.3 ng/mL | 0.25 h | 17.8% | 1.92 h | 380 ng/mL | 0.25 h | 21.6% | 2.07 h | 167.93 kg·ng·h/mL/mg | Metabolic Stability T½ [min] hum [4]: > 60 min; Cmax dose normalized ([6]; iv, 1 mg/kg): 194.67 kg·ng/mL/mg; V (terminal) ([6]; iv, 1 mg/kg): 14.32056 L/kg; AUC(t-∞) dose normalized ([6]; po, 5 mg/kg): 29.83 kg·ng·h/mL/mg; Cmax dose normalized ([6]; po, 5 mg/kg): 12.87 kg·ng/mL/mg; AUC(t-∞) dose normalized ([6]; po, 20 mg/kg): 36.22 kg·ng·h/mL/mg; Cmax dose normalized ([6]; po, 20 mg/kg): 18.98 kg·ng/mL/mg; Metabolic Stability 60 min (rat) [% remain.] [7]: 57 % remain.; Metabolic Stability T½ [min] (rat) [7]: 60 (60) min
